Source: the supplement of paper PMC5770543
± gives the standard deviation.

What was measured:
[1] = test system: Plasmodium falciparum 3D7; experiment: % inhibition of schizont-to-ring transition vs DMSO; higher = more inhibition
Summary of the method: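 Tightly synchronised P. falciparum schizonts (about 40–42 hours post-invasion, 1% parasitemia, 2.5% hematocrit, AlbuMAX-supplemented RPMI) were exposed to compound at 1, 3 or 10 µM, with vehicle and positive controls. Cells were glutaraldehyde-fixed, Triton-permeabilised, stained with Hoechst 33342 and counted by flow cytometry (at least 100,000 events). Schizont-to-ring transition inhibition is new ring formation relative to vehicle controls, averaged over three experiments.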

[2] = test system: Toxoplasma gondii RH tachyzoites; experiment: plaque count per well; higher = less inhibition; extreme values may be limits of the assay; conditions: 10 µM; 8-10 days
Experimental: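 T. gondii RH tachyzoites expressing firefly luciferase were grown in HFF monolayers for 48 h with compound. % growth inhibition at 10 µM and EC50 (2-fold dilutions from 10 µM) were read by luminescence relative to 1% DMSO; EC50 listed as 10 (not determined, <80% inhibition) is left out. Plaque assays: 50 tachyzoites per well with 10 µM compound for 8-10 days, giving plaque count and area by crystal violet/ImageJ. Egress: median time to egress after 1 µM A23187 ionophore following 24 h of 10 µM compound (DMSO ~1.8 min; >10 = no egress within 10 min).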

[3] = test system: Plasmodium falciparum 3D7; experiment: EC50 growth inhibition (60 h, SYBR Green); conditions: stage: ring-stage start
[4] = test system: Toxoplasma gondii RH tachyzoites; experiment: % growth inhibition vs DMSO (48 h luciferase); higher = more inhibition; conditions: 10 µM
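For % growth inhibition vs DMSO (48 h luciferase) in this document: tested in triplicate wells of 96-well plates on confluent HFF monolayers, with 1% DMSO wells as negative control in four replicates.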

Row | SMILES | % inhibition of schizont-to-ring transition ([1]; 1 µM) [%] | % inhibition of schizont-to-ring transition ([1]; 3 µM) [%] | % inhibition of schizont-to-ring transition ([1]; 10 µM) [%] | plaque count per well [2] | EC50 growth inhibition [3] [nM] | % growth inhibition [4] [%]
1 | Cc1cccc(Nc2nc(N)c3ccccc3n2)c1 | 3.41 | 36.1 | 54.2 | 0 | 669 | < 0
2 | COc1ccc(-c2c(C)nn3c(N)c(C#N)cnc23)cc1OC | 71.1 | 74.9 | 76.1 | 22 | 3710 | 7.54 ± 13
3 | CCOC(=O)C1CCN(C(=O)CN2C(=O)c3ccccc3C2c2c[nH]c3ccccc23)CC1 (stereo unspecified) | 15.7 | 32.3 | 65.4 | 31 | 971 | < 0
4 | CC1CCN(Cc2ccc(NC(=O)c3cc4ccc5cccnc5c4[nH]3)cc2)CC1 | 42.3 | 50 | 55.4 | 18 | 241 | < 0
5 | CCn1c(CN2CCN(Cc3ccccc3)CC2)nc2cc(NC(=O)c3cccs3)ccc21 | 40.6 | 47.9 | 56 | 0 | 615 | < 0
6 | CN(C)c1ccc(N2C(N)=NC(N)=NC2(C)C)cc1 | 7.46 | 13.2 | 46.8 | 23 | 5680 | < 0
7 | COc1ccc(C(=O)Nc2nonc2-c2ccc(OC)c(OC)c2)cc1Cl | 35.7 | 67.3 | 69.4 | 20 | 420 | 1.09 ± 1.9
8 | CN1CCN(c2nc(Nc3ccc(O)cc3)nc3ccccc23)CC1 | 34.7 | 33.4 | 52.2 | 29 | 1260 | < 0
9 | Cc1cc(=O)oc2c1ccc1oc(C(=O)c3ccccc3)c(C)c12 | 10.7 | 25.9 | 45.3 | 28 | 1870 | < 0
10 | O=C(NCC(c1ccsc1)N1CCCCCC1)c1ccc(C(F)(F)F)cc1 (stereo unspecified) | 43.8 | 41.5 | 47.4 | 0 | 3350 | 11 ± 19
11 | O=C(CCc1ccco1)NC1CCN(CC2(c3ccc(Cl)cc3)CCC2)CC1 | 18.8 | 41 | 67.5 | 23 | 509 | < 0
12 | O=[N+]([O-])c1ccc(C=NNc2nc3ccccc3[nH]2)cc1 | 29 | 43.8 | 49 | 33 | 663 | < 0
13 | Cc1ccc(F)cc1NC(=O)c1cc(Cl)ccc1Nc1ccccc1 | 54.4 | 70.7 | 81.9 | 26 | 1790 | < 0
14 | Cc1ccc(-c2cc3nc4c(c(O)n3n2)CCCC4)cc1 | 17.7 | 36.1 | 49.3 | 0 | 4270 | < 0
15 | CN1c2ccccc2N(C)C1c1ccc2c(c1)OCO2 | < 0 | < 0 | 18.3 | 23 | 9760 | < 0
16 | CCOc1cc(CNC(C)C(O)c2ccccc2)cc(Cl)c1OCC (stereo unspecified) | 2 | 17.2 | 44.2 | 0 | 1060 | 15 ± 24
17 | c1ccc(-c2ccc(-c3nc4ccccc4[nH]3)cc2)cc1 | 8.54 | 24.5 | 41 | 0 | 928 | 12.3 ± 15
18 | COc1ccc(-c2cc3c(SCC(=O)Nc4cc(C(F)(F)F)ccc4Cl)nccn3n2)cc1 | 35.7 | 37.5 | 49.5 | 28 | 259 | < 0
19 | OC(CNC1CCCCC1)Cn1c2ccccc2c2ccccc21 (stereo unspecified) | 48.9 | 69 | 75.3 | 21 | 985 | < 0
20 | Cc1c(C)n(Cc2ccc(F)cc2)c2ccc(C(=O)NCc3ccco3)cc12 | 36.3 | 40.3 | 53.4 | 21 | 1770 | < 0
21 | CCCN(CCC)CC(O)COc1ccccc1C(=O)Nc1ccccc1 (stereo unspecified) | 33 | 65.6 | 73.5 | 25 | 420 | < 0
22 | COc1ccc(OC)c(C2C3=C(CC(C)(C)CC3=O)N(c3ccc(Cl)c(Cl)c3)C3=C2C(=O)CC(C)(C)C3)c1 | 16.9 | 20.7 | 50.7 | 38 | 7740 | < 0

Row | SMILES | % inhibition of schizont-to-ring transition ([1]; 1 µM) [%] | % inhibition of schizont-to-ring transition ([1]; 3 µM) [%] | % inhibition of schizont-to-ring transition ([1]; 10 µM) [%] | plaque count per well [2] | EC50 growth inhibition [3] [nM] | % growth inhibition [4] [%]
23 | COc1ccc2c(c1OC)C(=O)N1c3ccccc3N=C(c3ccc(C)cc3)CC21 (stereo unspecified) | 20.9 | 71.5 | 80.7 | 32 | 6080 | < 0
24 | CN1C=C(c2ccc3ccccc3n2)C(c2c[nH]c3ccccc23)c2ccccc21 (stereo unspecified) | 26.7 | 37.7 | 70.6 | 0 | 638 | < 0
25 | Cc1cc(C=C2SC(=Nc3ccccc3)N(C3CCCC3)C2=O)c(C)n1-c1ccc(Cl)cc1 | 17.8 | 26.2 | 37.9 | 23 | 5270 | < 0
26 | Cc1ccc(CN2CCC(C(=O)Nc3ccc(-c4cc5ccccc5[nH]4)cc3)CC2)o1 | 21.9 | 44.3 | 68.2 | 38 | 2170 | < 0
27 | COc1ccccc1CNC(=O)CCn1c(=O)[nH]c2ccsc2c1=O | 11.4 | 30.6 | 49.9 | 22 | 6070 | < 0
28 | COc1ccc(CNC2CCN(c3ccc(NC(=O)c4cccc(Cl)c4)cc3)CC2)cc1OC | < 0 | 28.3 | 38.6 | 0 | 492 | 3.03 ± 5.2
29 | CCOC(=O)C1(Cc2ccccc2)CCN(Cc2cccc(OC)c2O)CC1 | 25.8 | 34 | 55.9 | 0 | 1330 | 1.84 ± 3.2
30 | CCc1ccc(CNCC(O)c2ccccc2)cc1 (stereo unspecified) | 12.2 | 14.9 | 45.9 | 21 | 4010 | < 0
31 | COc1ccc(-n2ccnc2SCC(=O)Nc2cc(C)ccc2C)c(OC)c1 | 41.6 | 49.9 | 56.2 | 31 | 226 | < 0
32 | OCCNc1nc(Nc2ccc(Cl)c(Cl)c2)nc2ccccc12 | 51 | 66.3 | 68.9 | 0 | 180 | < 0
33 | Cc1ccc(CSCc2ccc(C(=O)NC3CC3)o2)cc1 | 14.1 | 44.2 | 67.4 | 25 | 1000 | 3.19 ± 5.5
34 | CCOc1cc(Cl)c(C(C)NC(=O)c2cccc(OC)c2)cc1OCC (stereo unspecified) | 42.4 | 76.9 | 78.7 | 25 | 316 | < 0
35 | Cc1cc(N2CCN(C3CCCC3)CC2)n2c(nc3ccccc32)c1C#N | 33.3 | 39.3 | 51.3 | 30 | 878 | < 0
36 | c1ccc(/C2=N/c3ccccc3/N=C(/c3ccccc3)c3ccccc32)cc1 | 57.3 | 79.1 | 80.6 | 0 | 1580 | < 0
37 | CC1=C(CC(=O)c2cccc([N+](=O)[O-])c2)C(=O)c2ccccc2C1=O | 32.3 | 55.7 | 59.9 | 0 | 9850 | < 0
38 | CCc1c(C)c(=N)c2ccccc2n1C | 5.96 | 11.3 | 33.6 | 25 | 3380 | < 0
39 | CCCc1cc(O)c2c3c(c(=O)oc2c1)CN(C)CC3 | 25.2 | 60.2 | 68 | 33 | 364 | < 0
40 | CC(C)=CCN1CCC(C(=O)Nc2ccc(-c3nc4ccccc4[nH]3)cc2)CC1 | 18 | 45.8 | 59.4 | 0 | 464 | 19.7 ± 20
41 | COc1ccccc1N1CCN(C(CNS(=O)(=O)c2ccc(Cl)cc2)c2cccnc2)CC1 (stereo unspecified) | 16 | 20.5 | 49.3 | 34 | 2260 | 4.77 ± 8.3
42 | CCN1CCN(Cc2ccc(NC(=O)c3cc4ccc5cccnc5c4[nH]3)cc2)CC1 | 36.2 | 49.2 | 55.2 | 31 | 161 | < 0
43 | C[n+]1c2ccccc2nc2ccc(NCCO)cc21 | 33.2 | 48.3 | 65.4 | 0 | 96.4 | < 0
44 | CCN(CC)CCNc1ncnc2c1[nH]c1ccc(Br)cc12 | 41.8 | 49.9 | 55.8 | 26 | 225 | 7.24 ± 12

Row | SMILES | % inhibition of schizont-to-ring transition ([1]; 1 µM) [%] | % inhibition of schizont-to-ring transition ([1]; 3 µM) [%] | % inhibition of schizont-to-ring transition ([1]; 10 µM) [%] | plaque count per well [2] | EC50 growth inhibition [3] [nM] | % growth inhibition [4] [%]
45 | CCCCc1c(CCC)c(=N)c2ccccc2n1C | 7.81 | 11.2 | 39.6 | 23 | 3930 | < 0
46 | COc1ccc(N2CCN(C(CNC(=O)CC(C)(C)C)c3ccc4c(c3)OCO4)CC2)cc1 (stereo unspecified) | 8.37 | 17.9 | 32.6 | 24 | 1680 | < 0
47 | COc1ccc(Br)cc1C1Nc2ccc3ccccc3c2C2=C1C(=O)CC(c1ccccc1)C2 (stereo unspecified) | < 0 | 4.06 | 29.3 | 0 | 387 | 12.1 ± 11
48 | COc1ccc(CN2CCN(Cc3ccccc3)CC2)c(O)c1 | 13.1 | 19.6 | 40.3 | 29 | 2170 | 11.2 ± 5.4
49 | COc1ccc(-c2nonc2NC(=O)c2cccc(C)c2)cc1OC | 32.8 | 59 | 67.1 | 28 | 628 | 3.28 ± 4.1
50 | O=C(O)C1Cc2c([nH]c3ccccc23)C(c2ccc(Cl)cc2Cl)N1 (stereo unspecified) | 8.54 | 18.6 | 26.4 | 32 | 1300 | < 0
51 | O=C(Nc1ccc(CN2CCOCC2)cc1)c1ccc(-c2ccc(Br)cc2)o1 | 40.3 | 45.9 | 59.2 | 30 | 1420 | 8.26 ± 14
52 | Clc1ccc2c(N3CCCC3)ccnc2c1 | 43.1 | 53.3 | 69.9 | 25 | 1280 | < 0
53 | CCc1ccc(Nc2cc(C)nc3nc(C)nn23)cc1 | 7.01 | 30 | 50.7 | 27 | 2280 | < 0
54 | OC(CNC1CCCC1)Cn1c2ccccc2c2ccccc21 (stereo unspecified) | 22.3 | 40.1 | 63.4 | 0 | 723 | 15.9 ± 6.6
55 | COc1ccc(CN2CCCC(C(=O)c3ccc(C(F)(F)F)cc3)C2)c(O)c1 (stereo unspecified) | 9.13 | 32 | 51.1 | 20 | 912 | < 0
56 | COc1ccc(N2CCN(C(CNC(=O)C3CCCCC3)c3ccc4c(c3)OCO4)CC2)cc1 (stereo unspecified) | 41.5 | 44.2 | 49.2 | 23 | 6240 | < 0
57 | Cc1cc(NC(=O)c2cccc(C(F)(F)F)c2)n(-c2nc(-c3ccc4c(c3)OCO4)cs2)n1 | 13.2 | 16.2 | 18.9 | 26 | – | < 0
58 | O=C1c2ccccc2-c2nnc(-c3ccc(Br)cc3)cc21 | 5.35 | 17.7 | 32.6 | 24 | – | < 0
59 | CN(C)c1ccc(N=Cc2ccc(N3CCOCC3)cc2)cc1 | 17.3 | 20 | 24 | 22 | – | < 0
60 | O=C(Nc1ccsc1C(=O)NC1CCCCC1)c1ccc(F)cc1 | 4.95 | 8.54 | 14.8 | 20 | – | < 0
61 | CCCCCCOC(=O)C1=C(C)NC(=O)NC1c1ccccc1F (stereo unspecified) | 32.7 | 32.8 | 40.9 | 31 | – | < 0
62 | COc1cc(C(=O)Nc2nc3c(cc4c5c(cccc53)CC4)s2)cc(OC)c1OC | 3.9 | 8.08 | 22.5 | 38 | – | 4.43 ± 6.7
63 | Cc1ccc(-c2nc3ccccc3o2)cc1NCc1cc(Cc2ccccc2)ccc1O | 36.5 | 47.5 | 56.6 | 36 | – | < 0
64 | Cc1ccc(C(=O)c2oc3ccc4c(C)cc(=O)oc4c3c2C)cc1 | 6.95 | 10.6 | 20.4 | 24 | – | < 0
